Measured values: patent publication US9533026B2, “Polypeptide compounds for inhibiting angiogenesis and tumor growth” (VasGene Therapeutics, Inc., priority 2004, dated 2017)

Legend:
[1] = tested on: human endothelial cells; experiment: Endothelial cell chemotaxis / migration (Boyden chamber); format: cell-based; conditions: umbilical cord and hepatic AECs or VECs; growth factor stimuli
Procedure: Migration is assessed using the 48-well Boyden chamber and 8 μm pore size collagen-coated (10 μg/ml rat tail collagen; Collaborative Laboratories) polycarbonate filters (Osmonics, Inc.). The bottom chamber wells receive 27-29 μl of DMEM medium alone (baseline) or medium containing chemo-attractant (bFGF, VEGF or Swiss 3T3 cell conditioned medium). The top chambers receive 45 μl of HUVEC cell suspension (1×10^6 cells/ml) prepared in DMEM+1% BSA with or without test compound. After 5 h incubation at 37° C., the membrane is rinsed in PBS, fixed and stained in Diff-Quick solutions. The filter is placed on a glass slide with the migrated cells facing down and cells on top are removed using a Kimwipe. The testing is performed in 4-6 replicates and five fields are counted from each well. Negative unstimulated control values are subtracted from stimulated control and drug treated values and data is plotted as mean migrated cell±S.D. IC50 is calculated from the plotted data.
Chemotaxis of HUVECs to VEGF was assessed using a modified Boyden chamber, transwell membrane filter inserts in 24 well plates, 6.5 mm diam, 8 μm pore size, 10 μm thick matrigel coated, polycarbonate membranes (BD Biosciences). The cell suspensions of HUVECs (2×10^5 cells/ml) in 200 μl of EBM were seeded in the upper chamber and the soluble EphB4 protein were added simultaneously with stimulant (VEGF or bFGF) to the lower compartment of the chamber and their migration across a polycarbonate filter in response to 10-20 ng/ml of VEGF with or without 100 nM-1 μM test compound was investigated. After incubation for 4-24 h at 37° C., the upper surface of the filter was scraped with swab and filters were fixed and stained with Diff Quick. Ten random fields at 200× mag were counted and the results expressed as mean # per field. Negative unstimulated control values were subtracted from stimulated control and protein treated sample values and the data was plotted as mean migrated cell±S.D. IC50 was calculated from the plotted data.

[2] = tested on: HUVEC; experiment: Endothelial cell tube (cord) formation on Matrigel; format: cell-based, human
Procedure: Cord formation assay of HUVEC in Matrigel™ (upper row). Cells in exponential growth phase were treated overnight with the indicated concentrations of EphB4 extracellular domain (ECD) prior to plating on Matrigel™. Cells were trypsinized and plated (1×10^5 cells/well) in a 24-well plate containing 0.5 ml Matrigel™. Shown are representative 20× phase contrast fields of cord formation after 8 hr plating on Matrigel™ in the continued presence of the test compounds as shown. Original magnification 200×. KS-SLK cells treated in a similar manner (middle row) in a cord formation assay on Matrigel™. […] After 7 days the plugs were removed, sectioned and stained with H&E to visualize cells migrating into the matrix.
Matrigel (60 μl of 10 mg/ml; Collaborative Lab #35423) is placed in each well of an ice-cold 96-well plate. The plate is allowed to sit at room temperature for 15 minutes then incubated at 37° C. for 30 minutes to permit the matrigel to polymerize. In the mean time, HUVECs are prepared in EGM-2 (Clonetic #CC3162) at a concentration of 2×10^5 cells/ml. The test compound is prepared at 2× the desired concentration (5 concentration levels) in the same medium. Cells (500 μl) and 2× drug (500 μl) is mixed and 200 μl of this suspension are placed in duplicate on the polymerized matrigel. After 24 h incubation, triplicate pictures are taken for each concentration using a Bioquant Image Analysis system. Drug effect (IC50) is assessed compared to untreated controls by measuring the length of cords formed and number of junctions.
Matrigel (60 μl of 10 mg/ml; Collaborative Lab, Cat. No. 35423) was placed in each well of an ice-cold 96-well plate. The plate was allowed to sit at room temperature for 15 minutes then incubated at 37° C. for 30 minutes to permit Matrigel to polymerize. In the mean time, human umbilical vein endothelial cells were prepared in EGM-2 (Clonetic, Cat. No. CC3162) at a concentration of 2×10^5 cells/ml. The test protein was prepared at 2× the desired concentration (5 concentration levels) in the same medium. Cells (500 μl) and 2× protein (500 μl) were mixed and 200 μl of this suspension were placed in duplicate on the polymerized Matrigel. After 24 h incubation, triplicate pictures were taken for each concentration using a Bioquant Image Analysis system. Protein addition effect (IC50) was assessed compared to untreated controls by measuring the length of cords formed and number of junctions.

[3] = tested on: EphB4; experiment: EGF regulation of EphB4 in SCC15 cells with kinase inhibitors (Western blot); format: cell-based, human; conditions: for EGF stimulated induction of EphB4: serum-starved SCC15, 10 ng/ml EGF, 24 h; for basal levels of EphB4: serum-starved SCC15, 24 h
Procedure: B) SCC15 cells were serum-starved for 24 h prior to an additional 24 incubation as indicated with or without EGF (10 ng/ml), 3 μM U73122, or 5 μM SH-5, 5 μM SP600125, […] LY294002, - - μM PD098095 or 5 μM SB203580. N/A indicates cultures that received equal volume of diluent (DMSO) only. Cell lysates were subjected to Western Blot with EphB4 monoclonal antibody. β-actin signal serves as control of protein loading and transfer.

[4] = molecular target: T1, EphrinB2 (Homo sapiens, UniProt P52799); experiment: Ephrin B2-AP binding to immobilized EphB4EC proteins; conditions: B4 proteins immobilized on Ni2+-resin or nitrocellulose
T1 construct: protein fusion of Ephrin B2 ectodomain with placental alkaline phosphatase
T1 sequence (P52799 28-229 limits assumed): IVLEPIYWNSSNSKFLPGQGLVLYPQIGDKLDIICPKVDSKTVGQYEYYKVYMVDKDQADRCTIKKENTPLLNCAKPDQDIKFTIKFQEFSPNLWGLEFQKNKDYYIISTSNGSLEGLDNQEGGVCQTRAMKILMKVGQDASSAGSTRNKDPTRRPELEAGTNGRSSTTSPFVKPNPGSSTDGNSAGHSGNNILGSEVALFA
Procedure: 10 μl of Ni-NTA-Agarose were incubated in microcentrifuge tubes with 50 μl of indicated amount of B4ECv3 diluted in binding buffer BB (20 mM Tris-HCl, 0.15 M NaCl, 0.1% bovine serum albumin pH 8) After incubation for 30 min on shaking platform, Ni-NTA beads were washed twice with 1.4 ml of BB, followed by application of 50 μl of B2-AP in the final concentration of 50 nM. Binding was performed for 30 min on shaking platform, and then tubes were centrifuged and washed one time with 1.4 ml of BB. Amount of precipitated AP was measured colorimetrically after application of PNPP.
To confirm ability of the purified recombinant proteins to bind Ephrin B2, they were tested in an in vitro binding assay. As expected, GC, GCF1 and GCF2, but not CF2 are binding the cognate ligand Ephrin B2 as confirmed by interaction between Ephrin B2-alkaline phosphatase (Ephrin B2-AP) fusion protein with the B4 proteins immobilized on Ni^2+-resin or on nitrocellulose membrane (FIG. 17).

[5] = tested on: EphB4 receptor; experiment: Cell-based EphB4 tyrosine kinase assay in PC3 cells; design: species or system human; conditions: Ephrin B2-Fc ligand preincubated with protein
Procedure: All four proteins were also tested for their ability to block ligand-dependent dimerization and activation of Eph B4 receptor kinase in PC3 cells. The PC3 human prostate cancer cell line is known to express elevated levels of human Eph B4. Stimulation of PC3 cells with Ephrin B2 IgG Fc fusion protein leads to a rapid induction of tyrosine phosphorylation of the receptor. However, preincubation of the ligand with GCF2, GCF1 or GC, but not CF2 proteins suppresses subsequent EphB4 autophosphorylation.
The human prostate carcinoma cell line PC3 cells were maintained in RPMI medium with 10% dialyzed fetal calf serum and 1% penicillin/streptomycin/neomycin antibiotics mix. Cells were maintained at 37° C. in a humidified atmosphere of 5% CO2/95% air. Typically, cells were grown in 60 mm dishes until confluency and were either treated with mouse Ephrin B2-Fc fusion at 1 μg/ml in RPMI for 10 min to activate EphB4 receptor or plain medium as a control. To study the effect of different derivatives of soluble EphB4 ECD proteins on EphB4 receptor activation, three sets of cells were used. In the first set, cells were treated with various proteins (5 proteins; GC, GCF1, GCF2, GCF2-F, CF2) at 5 μg/ml for 20 min. In the second set of cells, prior to application, proteins were premixed with ephrinB2-Fc at 1:5 (EphB4 protein:B2-Fc) molar ratio, incubated for 20 min and applied on cells for 10 min. In the third set of cells, cells were first treated with the proteins for 20 min at 5 μg/ml, media was replaced with fresh media containing 1 μg/ml of EphrinB2-Fc and incubated for another 10 min.
After the stimulation, cells were immediately harvested with protein extraction buffer containing 20 mM Tris-HCl, pH 7.4, 150 mM NaCl, 1% (v/v) Triton X100, 1 mM EDTA, 1 mM PMSF, 1 mM Sodium vanadate. Protein extracts were clarified by centrifugation at 14,000 rpm for 20 min at 4° C. Clarified protein samples were incubated overnight with protein A/G coupled agarose beads pre-coated with anti-EphB4 monoclonal antibodies. The IP complexes were washed twice with the same extraction buffer containing 0.1% Triton X100. The immunoprecipitated proteins were solubilized in 1×SDS-PAGE sample loading buffer and separated on 10% SDS-PAGE. For EphB4 receptor activation studies, electroblotted membrane was probed with anti-pTyr specific antibody 4G10 at 1:1000 dilution followed by Protein G-HRP conjugate at 1:5000 dilutions.

| Molecule | EGF stimulated induction of EphB4 [3] | basal levels of EphB4 [3] | also measured |
| --- | --- | --- | --- |
| B2EC-FC: Ephrin B2 extracellular domain fused to human IgG1 Fc fragment, SEQ ID NO:5 | – | – | chemotaxis of human endothelial cells [1]: blocked chemotaxis; endothelial cell tube / tubule / cord formation [2]: inhibition |
| COc1ccc2c(c1)CC[C@@H]1[C@@H]2CC[C@]2(C)[C@@H](NCCCCCCN3C(=O)C=CC3=O)CC[C@@H]12 [U73122] | blocked | reduced | – |
| C[S+]([O-])c1ccc(-c2nc(-c3ccncc3)c(-c3ccc(F)cc3)[nH]2)cc1 (centres unmarked) [SB203580] | – | increased | – |
| COc1cccc(-c2cc(=O)c3ccccc3o2)c1N [PD098095] | no discernible effect | reduced | – |
| CCCCCCCCCCCCCCCCCCOC[C@H](COP(=O)(O)O[C@H]1[C@H](O)[C@@H](O)[C@H](O)C[C@H]1OC)OC [SH-5] | blocked | reduced | – |
| GC: EphB4EC deletion variant, globular domain and Cys-rich domain, 6xHis tagged, SEQ ID NO:12 (protein, Recombinant B4EC-GC) MELRVLLCWASLAAALEETLLNTKLETADLKWVTFPQVDGQWEELSGLDEEQHSVRTYEVCEVQRAPGQAHWLRTGWVPRRGAVHVYATLRFTMLECLSLPRAGRSCKETFTVFYYESDADTATALTPAWMENPYIKVDTVAAEHLTRKRPGAEATGKVNVKTLRLGPLSKAGFYLAFQDQGACMALLSLHLFYKKCAQLTVNLTRFPETVPRELVVPVAGSCVVDAVPAPGPSPSLYCREDGQWAEQPVTGCSCAPGFEAAEGNTKCRACAQGTFKPLSGEGSCQPCPANSHSNTIGSAVCQCRVGYFRARTDPRGAPCTTPPSAHHHHHH | – | – | binding the cognate ligand Ephrin B2 [4]: binding; EphB4 autophosphorylation [5]: suppresses |
| B2EC: soluble extracellular domain of human Ephrin B2, SEQ ID NO:3 (protein, Recombinant B2EC protein) MAVRRDSVWKYCWGVLMVLCRTAISKSIVLEPIYWNSSNSKFLPGQGLVLYPQIGDKLDIICPKVDSKTVGQYEYYKVYMVDKDQADRCTIKKENTPLLNCAKPDQDIKFTIKFQEFSPNLWGLEFQKNKDYYIISTSNGSLEGLDNQEGGVCQTRAMKILMKVGQDASSAGSTRNKDPTRRPELEAGTNGRSSTTSPFVKPNPGSSTDGNSAGHSGNNILGSEVGSHHHHHH | – | – | chemotaxis of human endothelial cells [1]: blocked chemotaxis |
| GCF1: EphB4EC variant, globular, Cys-rich and the first FNIII domain, 6xHis tagged, SEQ ID NO:13 (protein, Recombinant GCF) MELRVLLCWASLAAALEETLLNTKLETADLKWVTFPQVDGQWEELSGLDEEQHSVRTYEVCEVQRAPGQAHWLRTGWVPRRGAVHVYATLRFTMLECLSLPRAGRSCKETFTVFYYESDADTATALTPAWMENPYIKVDTVAAEHLTRKRPGAEATGKVNVKTLRLGPLSKAGFYLAFQDQGACMALLSLHLFYKKCAQLTVNLTRFPETVPRELVVPVAGSCVVDAVPAPGPSPSLYCREDGQWAEQPVTGCSCAPGFAEGNTKCRACAQGTFKPLSGEGSCQPCPANSHSNTIGSAVCQCRVGYFRARTDPRGAPCTTPPSAPRSVVSRLNGSSLHLEWSAPLESGGREDLTYALRCRECRPGGSCAPCGGDLTFDPGPRDLVEPWVVVRGLRPDFTYTFEVTALNGVSSLATGPVPFEPVNVHHHHHH | – | – | binding the cognate ligand Ephrin B2 [4]: binding; EphB4 autophosphorylation [5]: suppresses |
